We go through 57 molecules from the RepoRT retention time repository.

Where a name gives a salt, the structure may show the parent alone.

The data set is described as follows: HILIC, Merck SeQuant ZIC-HILIC, 25 °C, 0.25 mL/min; A: water + 16 mM ammonium formate; B: acetonitrile + 0.1% formic acid, pH 3; gradient (min/%B) 0/97 2/97 10/70 15/10 17/10 18/97 25/97. As to conditions: stereoisomer not certain.
On to `CC(=O)C1(O)CCC2C3CCC4=CC(=O)CCC4(C)C3CCC21C` (configuration not stated) [17a-Hydroxyprogesterone], for which the LC retention time turned out to be 1.61 min.
The same measure for `CCCCCCCCCCCCCCCCCC(=O)OCC(O)COP(=O)([O-])OCC[N+](C)(C)C` (configuration not stated) [18-0_LysoPC]: 11.2 min.
The same measure for `CCCCCCCCCCCCCCCCCC(=O)OCC(O)COP(=O)(O)OCCN` (configuration not stated) [18-0_LysoPE]: 10.2 min; for `CCCCCCCCC=CCCCCCCCC(=O)OCC(O)COP(=O)(O)O` (configuration not stated) [18-1_LysoPA]: 9.21 min; for `CCCCCCCCC=CCCCCCCCC(=O)OCC(O)COP(=O)([O-])OCC[N+](C)(C)C` (configuration not stated) [18-1_LysoPC]: 11.2 min.
Take `CCCCCCCCC=CCCCCCCCC(=O)OCC(O)COP(=O)(O)OCCN` (configuration not stated) [18-1_LysoPE]: the LC retention time turned out to be 10.3 min.
Regarding `CC(=O)C1(O)CCC2C3CCC4=CC(=O)CCC4(C)C3C(O)CC21C` (configuration not stated) [21-Deoxycortisol], the LC retention time worked out at 1.68 min.
As for `CC(CCCC(C)(C)O)C1CCC2C3CC=C4CC(O)CCC4(C)C3CCC12C` (configuration not stated) [25-HYDROXYCHOLESTEROL], the LC retention time came out at 1.6 min.
The same measure for `NCCP(=O)(O)O` [(2-AMINOETHYL)PHOSPHONATE]: 15 min; for `C=C(C)C1CC=C(C)C(=O)C1` [(R)-(-)-Carvone]: 1.55 min; for `C[C@H](O)CC(=O)O` [(S)-3-Hydroxybutyric acid]: 2.16 min.
The same measure for `CC(=O)CC(=O)[O-]` [ACETOACETATE]: 1.91 min; for `CC(=O)C(C)O` (configuration not stated) [ACETOIN]: 2.12 min.
As for `CC(=O)OCC[N+](C)(C)C` [ACETYLCHOLINE+C2H2O4], the LC retention time amounted to 10 min.
For `Nc1ncnc2c1ncn2C1OC(CO)C2OP(=O)(O)OC21` (configuration not stated) [ADENOSINE 2'-3'-CYCLIC PHOSPHATE], the LC retention time was 11.4 min.
Turning to `Nc1ncnc2c1ncn2C1OC(COP(=O)(O)O)C(OP(=O)(O)O)C1O` (configuration not stated) [ADENOSINE 3'-5'-DIPHOSPHATE], the LC retention time stood at 14.9 min.
The same measure for `Nc1ncnc2c1ncn2C1OC(COP(=O)(O)OP(=O)(O)O)C(O)C1O` (configuration not stated) [ADENOSINE 5'-DIPHOSPHATE]: 14.7 min.
The same measure for `Nc1ncnc2c1ncn2C1OC(COP(=O)(O)OP(=O)(O)OCC2OC(O)C(O)C2O)C(O)C1O` (configuration not stated) [ADENOSINE DIPHOSPHATE RIBOSE]: 14.6 min; for `Nc1ncnc2c1ncn2C1OC(COP(=O)(O)OP(=O)(O)OP(=O)(O)O)C(O)C1O` (configuration not stated) [ADENOSINE TRIPHOSPHATE]: 15.5 min; for `Nc1ncnc2c1ncn2C1OC(COP(=O)(O)O)C(O)C1O` (configuration not stated) [ADENOSINE-MONOPHOSPHATE]: 13.6 min.
The same measure for `Nc1ncnc2c1ncn2C1OC(CO)C(O)C1O` (configuration not stated) [ADENOSINE]: 8.64 min; for `Nc1ncnc2c1ncn2C1OC(COP(=O)(O)OP(=O)(O)OC2OC(CO)C(O)C(O)C2O)C(O)C1O` (configuration not stated) [ADP-GLUCOSE]: 14.7 min.
Turning to `NCCCCN=C(N)N` [AGMATINE SULFATE], the LC retention time stood at 17.2 min.
The same measure for `NC(=O)c1ncn(C2OC(COP(=O)(O)O)C(O)C2O)c1N` (configuration not stated) [AICAR]: 14.2 min; for `NC(=O)NC1NC(=O)NC1=O` (configuration not stated) [ALLANTOIN]: 11.2 min.
The same measure for `NC(CCCC(=O)O)C(=O)O` (configuration not stated) [AMINOADIPATE]: 13.8 min; for `CC(CN)C(=O)O` (configuration not stated) [AMINOISOBUTANOATE]: 13.4 min.
With `Cn1cncc1CC(NC(=O)CCN)C(=O)O` (configuration not stated) [ANSERINE], the LC retention time was determined as 16.1 min.
Take `Nc1ccccc1C(=O)O` [ANTHRANILATE]: the LC retention time is 1.84 min.
The same measure for `O=C1OC(C(O)CO)C(O)=C1O` (configuration not stated) [ASCORBATE]: 10.5 min; for `O=C(O)CCCCCCCC(=O)O` [AZELATE]: 1.84 min; for `CC(=O)OCC(=O)O` [Acetoxyacetic acid]: 2.23 min.
Take `Nc1ncnc2c1ncn2C1OC(CO)C(OP(=O)(O)O)C1O` (configuration not stated) [Adenosine 3'-monophosphate free acid]: the LC retention time came out at 13.2 min.
The same measure for `Nc1ccc(C(=O)NCC(=O)O)cc1` [Aminohippuric acid]: 5.96 min; for `NCCC(=O)O` [BETA-ALANINE]: 14.1 min.
The same measure for `NC(=O)c1ccc[n+](C2OC(COP(=O)(O)OP(=O)(O)OCC3OC(n4cnc5c(N)ncnc54)C(O)C3O)C(O)C2O)c1` (stereo not drawn) [BETA-NICOTINAMIDE ADENINE DINUCLEOTIDE]: 14.6 min; for `C=CC1=C(C)C(C=c2[nH]c(=Cc3[nH]c(C=C4NC(=O)C(C)=C4C=C)c(C)c3CCC(=O)O)c(CCC(=O)O)c2C)=NC1=O` [BILIVERDIN]: 2.06 min; for `CCCCC(CC)COC(=O)c1ccccc1C(=O)OCC(CC)CCCC` (configuration not stated) [BIS(2-ETHYLHEXYL)PHTHALATE]: 1.48 min.
In the case of `CCCC=O` [BUTANAL], the LC retention time worked out at 1.71 min.
As for `CCCC(=O)[O-]` [BUTANOATE], the LC retention time was found to be 2.15 min.
The same measure for `C=C(C)C1CCC2(C(=O)O)CCC3(C)C(CCC4C5(C)CCC(O)C(C)(C)C5CCC43C)C12` (configuration not stated) [Betulinic acid]: 1.58 min; for `CCCCCCCCCCCCCCC=COCC(O)COP(=O)([O-])OCC[N+](C)(C)C` (configuration not stated) [C16_PlasmLPC]: 11.1 min; for `CCCCCCCCCCCCCCCCCCOCC(O)COP(=O)([O-])OCC[N+](C)(C)C` (configuration not stated) [C18_LysoPAF]: 11.3 min.
The same measure for `Cn1c(=O)c2c(ncn2C)n(C)c1=O` [CAFFEINE]: 1.87 min; for `NCCC(=O)NC(Cc1cnc[nH]1)C(=O)O` (configuration not stated) [CARNOSINE]: 16 min.
The same measure for `CC(CCC(=O)O)C1CCC2C3C(O)CC4CC(O)CCC4(C)C3CCC12C` (configuration not stated) [CHENODEOXYCHOLATE]: 1.85 min.
As to `CC(CCC(=O)O)C1CCC2C3C(O)CC4CC(O)CCC4(C)C3CC(O)C12C` (configuration not stated) [CHOLATE], the LC retention time was 2.18 min.
Regarding `C[N+](C)(C)CCOP(=O)(O)OP(=O)([O-])OCC1OC(n2ccc(N)nc2=O)C(O)C1O` (configuration not stated) [CITICOLINE], the LC retention time turned out to be 15.7 min.
For `CC(O)(CC(=O)O)C(=O)O` (configuration not stated) [CITRAMALATE], the LC retention time was 6.53 min.
The same measure for `O=C(O)CC(O)(CC(=O)O)C(=O)O` [CITRATE]: 13 min; for `NC(=O)NCCCC(N)C(=O)O` (configuration not stated) [CITRULLINE]: 14.5 min; for `CC(C)(COP(=O)(O)OP(=O)(O)OCC1OC(n2cnc3c(N)ncnc32)C(O)C1OP(=O)(O)O)C(O)C(=O)NCCC(=O)NCCS` (configuration not stated) [COENZYME A]: 14.3 min.
Turning to `CC12CCC(=O)C=C1CCC1C2CCC2(C)C1CCC2(O)C(=O)CO` (configuration not stated) [CORTEXOLONE], the LC retention time was 1.71 min.
Turning to `CC12CCC(=O)C=C1CCC1C2C(O)CC2(C)C(C(=O)CO)CCC12` (configuration not stated) [CORTICOSTERONE], the LC retention time was 1.74 min.
The same measure for `CC12CCC(=O)C=C1CCC1C2C(O)CC2(C)C1CCC2(O)C(=O)CO` (configuration not stated) [CORTISOL]: 1.89 min.
The same measure for `CC12CCC(=O)C=C1CCC1C2C(=O)CC2(C)C1CCC2(O)C(=O)CO` (configuration not stated) [CORTISONE]: 1.8 min; for `CN(CC(=O)O)C(=N)N` [CREATINE]: 13.9 min.
